Results: patent US20180148418A1, “AMIDO-SUBSTITUTED CYCLOHEXANE DERIVATIVES” (Bayer Pharma Aktiengesellschaft, priority 2015, published 2018)

What was measured:
[1] = system: HEK293 cells cotransfected with the FOP control vector; assay: HEK293 FOP assay (control reporter with non-functional TCF elements); assay type: cell-based; details: Homo sapiens, 16 hours
How it was run: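 Stable HEK293 line carrying FOP control reporter (randomized non-functional TCF sites, with pcDNA3), Geneticin-selected, plated 24 h before assay. Stimulated with recombinant human Wnt-3a (2500-5 ng/ml) and compounds 50 μM–15 nM (3.16-fold steps) in CAFTY buffer pH 7.4 with 2 mM Ca2+, 0.01% BSA, run parallel to TOP line.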

[2] = system: wildtype Wnt signaling cascade; assay: HEK293 TOP assay (Super TopFlash luciferase reporter, Wnt-3a stimulated); assay type: cell-based; details: Homo sapiens, HEK293, 16 h, HEK293 TOP reporter cells, Wnt3a at EC50, 16 hours
How it was run: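 HEK293 cells stably carrying Super TopFlash (TOP) run in parallel with FOP cells, 10000/well plated 24 h ahead, stimulated with recombinant human Wnt-3a. Compounds tested 50 μM to 15 nM in 3.16-fold steps in CAFTY buffer pH 7.4 with 2 mM Ca^2+ and 0.01% BSA; luciferase read-out.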

TNKS2 = molecular target: T1, TNKS2 (Homo sapiens, UniProt Q9H2K2); assay: TNKS2 Assay B (auto-parsylation, [3H]-NAD+ SPA); assay type: biochemical; details: 6 nM TNKS2, auto-parsylation, over night at room temperature
T1 construct: purchased BPS Bioscience, San Diego, USA 80572 (TNKS2 Histone Ribosylation Assay Kit)
T1 sequence (Q9H2K2 1-1166): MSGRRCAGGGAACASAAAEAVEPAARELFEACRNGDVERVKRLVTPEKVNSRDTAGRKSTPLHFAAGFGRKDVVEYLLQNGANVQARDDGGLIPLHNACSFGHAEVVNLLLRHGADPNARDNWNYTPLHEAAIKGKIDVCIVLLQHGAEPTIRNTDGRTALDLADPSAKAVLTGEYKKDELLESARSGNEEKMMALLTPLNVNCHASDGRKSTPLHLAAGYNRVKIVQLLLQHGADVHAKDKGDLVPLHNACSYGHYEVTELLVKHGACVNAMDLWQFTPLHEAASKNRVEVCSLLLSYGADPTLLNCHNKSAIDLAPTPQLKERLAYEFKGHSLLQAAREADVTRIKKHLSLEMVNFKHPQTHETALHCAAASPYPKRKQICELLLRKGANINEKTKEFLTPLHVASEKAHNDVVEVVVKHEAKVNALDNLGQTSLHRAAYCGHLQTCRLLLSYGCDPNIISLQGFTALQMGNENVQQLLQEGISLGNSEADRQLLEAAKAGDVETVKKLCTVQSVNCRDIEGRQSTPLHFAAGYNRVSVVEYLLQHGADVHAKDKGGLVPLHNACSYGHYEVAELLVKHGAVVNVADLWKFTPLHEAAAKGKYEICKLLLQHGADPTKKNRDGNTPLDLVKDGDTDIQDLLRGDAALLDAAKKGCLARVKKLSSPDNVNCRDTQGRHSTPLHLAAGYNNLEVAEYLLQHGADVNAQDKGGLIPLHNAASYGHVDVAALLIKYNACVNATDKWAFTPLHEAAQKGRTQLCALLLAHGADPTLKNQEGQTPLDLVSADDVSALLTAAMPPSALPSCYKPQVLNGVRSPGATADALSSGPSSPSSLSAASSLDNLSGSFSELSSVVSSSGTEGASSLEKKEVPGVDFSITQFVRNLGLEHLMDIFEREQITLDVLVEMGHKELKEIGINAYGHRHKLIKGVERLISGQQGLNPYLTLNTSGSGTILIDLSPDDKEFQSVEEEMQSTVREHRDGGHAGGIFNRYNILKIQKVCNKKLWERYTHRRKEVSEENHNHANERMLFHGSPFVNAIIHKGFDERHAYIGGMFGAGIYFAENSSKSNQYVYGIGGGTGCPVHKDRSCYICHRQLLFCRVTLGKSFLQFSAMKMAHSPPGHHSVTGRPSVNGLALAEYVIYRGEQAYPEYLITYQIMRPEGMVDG

Row | IC50 [2] [nM] | IC50 (TNKS2) [nM] | SMILES | IC50 [1] [nM]
1 | 1.6 | 8.8 | Cc1cc(N2CC[C@]3(CC[C@@H](NC(=O)c4[nH]cnc4C(=O)N4CC(F)C4)CC3)C2=O)c(Cl)cc1F [Example 292, N-[(trans)-2-(2-chloro-4-fluoro-5-methylphenyl)-1-oxo-2-azaspiro[4.5]dec-8-yl]-4-[(3-fluoroazetidin-1-yl)carbonyl]-1H-imidazole-5-carboxamide] | 10000
2 | 1.6 | 7.9 | Cc1cc(N2CC[C@]3(CC[C@@H](NC(=O)c4[nH]cnc4C(=O)N4CC5(COC5)C4)CC3)C2=O)c(Cl)cc1F [Example 293, N-[(trans)-2-(2-chloro-4-fluoro-5-methylphenyl)-1-oxo-2-azaspiro[4.5]dec-8-yl]-4-(2-oxa-6-azaspiro[3.3]hept-6-ylcarbonyl)-1H-imidazole-5-carboxamide] | ≥ 50000
3 | 46 | 150 | Cc1cc(N2CC[C@]3(CC[C@@H](NC(=O)c4[nH]cnc4C(=O)N4CCN(C)CC4)CC3)C2=O)c(Cl)cc1F [Example 294, N-[(trans)-2-(2-chloro-4-fluoro-5-methylphenyl)-1-oxo-2-azaspiro[4.5]dec-8-yl]-4-[(4-methylpiperazin-1-yl)carbonyl]-1H-imidazole-5-carboxamide] | ≥ 50000
4 | 1 | 9.2 | Cc1cc(N2CC[C@]3(CC[C@@H](NC(=O)c4[nH]cnc4C(=O)NC4CC4)CC3)C2=O)c(Cl)cc1F [Example 295, N^5-[(trans)-2-(2-chloro-4-fluoro-5-methylphenyl)-1-oxo-2-azaspiro[4.5]dec-8-yl]-N^4-cyclopropyl-1H-imidazole-4,5-dicarboxamide] | 12000
5 | 1.3 | 8.3 | Cc1cc(N2CC[C@]3(CC[C@@H](NC(=O)c4[nH]cnc4C(=O)N4CC(OC(F)F)C4)CC3)C2=O)c(Cl)cc1F [Example 296, N-[(trans)-2-(2-chloro-4-fluoro-5-methylphenyl)-1-oxo-2-azaspiro[4.5]dec-8-yl]-4-{[3-(difluoromethoxy)azetidin-1-yl]carbonyl}-1H-imidazole-5-carboxamide] | 35000
6 | 14 | 32 | Cc1cc(N2CCC[C@]3(CC[C@@H](NC(=O)c4[nH]cnc4C(=O)N4CC(F)C4)CC3)C2=O)c(Cl)cc1F [Example 303, N-[(trans)-2-(2-chloro-4-fluoro-5-methylphenyl)-1-oxo-2-azaspiro[5.5]undec-9-yl]-4-[(3-fluoroazetidin-1-yl)carbonyl]-1H-imidazole-5-carboxamide] | ≥ 500
7 | 11 | 47 | CNC(=O)c1nc[nH]c1C(=O)N[C@H]1CC[C@@]2(CCCN(c3cc(C)c(F)cc3Cl)C2=O)CC1 [Example 304, N^5-[(trans)-2-(2-chloro-4-fluoro-5-methylphenyl)-1-oxo-2-azaspiro[5.5]undec-9-yl]-N^4-methyl-1H-imidazole-4,5-dicarboxamide] | ≥ 500
8 | 8.1 | 65 | CCNC(=O)c1nc[nH]c1C(=O)N[C@H]1CC[C@@]2(CCCN(c3cc(C)c(F)cc3Cl)C2=O)CC1 [Example 305, N^5-[(trans)-2-(2-chloro-4-fluoro-5-methylphenyl)-1-oxo-2-azaspiro[5.5]undec-9-yl]-N^4-ethyl-1H-imidazole-4,5-dicarboxamide] | ≥ 500
9 | 12 | 67 | COCCNC(=O)c1nc[nH]c1C(=O)N[C@H]1CC[C@@]2(CCCN(c3cc(C)c(F)cc3Cl)C2=O)CC1 [Example 306, N^5-[(trans)-2-(2-chloro-4-fluoro-5-methylphenyl)-1-oxo-2-azaspiro[5.5]undec-9-yl]-N^4-(2-methoxyethyl)-1H-imidazole-4,5-dicarboxamide] | ≥ 500
10 | 5.4 | 110 | Cc1cc(N2CCC[C@]3(CC[C@@H](NC(=O)c4[nH]cnc4C(=O)NC4CC4)CC3)C2=O)c(Cl)cc1F [Example 308, N^5-[(trans)-2-(2-chloro-4-fluoro-5-methylphenyl)-1-oxo-2-azaspiro[5.5]undec-9-yl]-N^4-cyclopropyl-1H-imidazole-4,5-dicarboxamide] | 11000
11 | 100 | 45 | Cc1cc(N2CCC[C@]3(CC[C@@H](NC(=O)c4[nH]cnc4C(N)=O)CC3)C2=O)c(Cl)cc1F [Example 309, N^5-[(trans)-2-(2-chloro-4-fluoro-5-methylphenyl)-1-oxo-2-azaspiro[5.5]undec-9-yl]-1H-imidazole-4,5-dicarboxamide] | ≥ 50000
12 | 15 | 270 | Cc1cc(N2CCC[C@]3(CC[C@@H](NC(=O)c4[nH]cnc4C(=O)NC(C)C)CC3)C2=O)c(Cl)cc1F [Example 310, N^5-[(trans)-2-(2-chloro-4-fluoro-5-methylphenyl)-1-oxo-2-azaspiro[5.5]undec-9-yl]-N^4-(propan-2-yl)-1H-imidazole-4,5-dicarboxamide] | 13000
13 | 30 | 41 | Cc1cc(N2CCC[C@]3(CC[C@@H](NC(=O)c4[nH]cnc4C(=O)N4CC5(COC5)C4)CC3)C2=O)c(Cl)cc1F [Example 311, N-[(trans)-2-(2-chloro-4-fluoro-5-methylphenyl)-1-oxo-2-azaspiro[5.5]undec-9-yl]-4-(2-oxa-6-azaspiro[3.3]hept-6-ylcarbonyl)-1H-imidazole-5-carboxamide] | ≥ 50000
14 | 24 | 4.1 | Cc1cc(N2CCC[C@]3(CC[C@@H](NC(=O)c4[nH]cnc4C(=O)NCCN4CCC(C)CC4)CC3)C2=O)c(Cl)cc1F [Example 312, N^5-[(trans)-2-(2-chloro-4-fluoro-5-methylphenyl)-1-oxo-2-azaspiro[5.5]undec-9-yl]-N^4-[2-(4-methylpiperidin-1-yl)ethyl]-1H-imidazole-4,5-dicarboxamide] | ≥ 500
15 | 2.7 | 10 | O=C(N[C@H]1CC[C@@]2(CCCN(c3cc(F)c(F)cc3Cl)C2=O)CC1)c1cnn2cccnc12 [Example 313, N-[(trans)-2-(2-chloro-4,5-difluorophenyl)-1-oxo-2-azaspiro[5.5]undec-9-yl]pyrazolo[1,5-a]pyrimidine-3-carboxamide] | ≥ 500
16 | 6.3 | 22 | O=C(N[C@H]1CC[C@@]2(CCCN(c3cc(F)c(F)cc3Cl)C2=O)CC1)c1cnc2cccnn12 [Example 314, N-[(trans)-2-(2-chloro-4,5-difluorophenyl)-1-oxo-2-azaspiro[5.5]undec-9-yl]imidazo[1,2-b]pyridazine-3-carboxamide] | ≥ 500
17 | 3.9 | 14 | Cc1cc(C)n2ncc(C(=O)N[C@H]3CC[C@@]4(CCCN(c5cc(F)c(F)cc5Cl)C4=O)CC3)c2n1 [Example 315, N-[(trans)-2-(2-chloro-4,5-difluorophenyl)-1-oxo-2-azaspiro[5.5]undec-9-yl]-5,7-dimethylpyrazolo[1,5-a]pyrimidine-3-carboxamide] | ≥ 500
18 | 1.6 | 5 | O=C(N[C@H]1CC[C@@]2(CCCN(c3cc(F)c(F)cc3Cl)C2=O)CC1)c1[nH]cnc1C(=O)N1CC(F)C1 [Example 316, N-[(trans)-2-(2-chloro-4,5-difluorophenyl)-1-oxo-2-azaspiro[5.5]undec-9-yl]-4-[(3-fluoroazetidin-1-yl)carbonyl]-1H-imidazole-5-carboxamide] | ≥ 500
